Results from US5223526A, “Pyrazole carboxanilide fungicides and use” (Monsanto Company, priority 1992, dated 1993).

Key:
succinate dehydrogenase = molecular target: T1, succinate dehydrogenase (Botrytis cinerea, UniProt A0A384J5E4+A0A384J8V8+A0A384JHJ5); experiment: Enzyme inhibition: succinate dehydrogenase activity in Botrytis cinerea mitochondria (DCPIP reduction); assay type: biochemical; conditions: concentration required to inhibit the rate of DCPIP reduction by 50%; Botrytis cinerea isolate Nick mitochondria; read-out: I50 (μM conc.)
T1 construct: succinate-DCPIP reductase assay with KCN
Procedure, shortened: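 Crude mitochondria from Botrytis cinerea isolate Nick mycelia, prepared by bead-beating and differential centrifugation, started reactions. SDH activity followed as DCPIP reduction at 600 nm in 50 mM K-phosphate pH 7.2 with 1 mM KCN, 45 μM DCPIP, 17 mM succinate, 1% acetone. I50 from semilog inhibition plots, corrected for succinate-free rates.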

Botrytis cinerea [1] = experiment: Eggplant grey mold; assay type: in vivo; design: scale not given here; conditions: inoculated 24 h later, rated after 3-4 days; for Disease Control Rating at 500 ppm: eggplant sprayed with 500 ppm; for Disease Control Rating at 20 ppm: eggplant sprayed with 20 ppm; for Disease Control Rating at 100 ppm: eggplant sprayed with 100 ppm
Procedure, shortened: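 Protective test: compound formulations (2:3 acetone:water, 0.5% Tween 20; 500, 100 or 20 ppm) sprayed on 14-18-day-old plants, with spore inoculum (4×10^6 spore/mL) applied a day later. Disease control rated on Botrytis lesions after 3-4 days at 23 °C and 100% humidity.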

Rhizoctonia solani = experiment: Rice sheath blight; assay type: in vivo; design: scale not given here; conditions: inoculated two days later, rated after 7 days, average of five plants; for Disease Control Rating at 0.02 mg/mL: foliage and soil sprayed with 0.02 mg/mL; for Disease Control Rating at 0.1 mg/mL: foliage and soil sprayed with 0.1 mg/mL; for Disease Control Rating at 0.5 mg/mL: foliage and soil sprayed with 0.5 mg/mL
Procedure, shortened: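 Rice plants 11–15 days old had foliage and soil sprayed with 0.5, 0.1 or 0.02 mg/mL Compound A in water/acetone/Tween 20, then kept in flooded trays. Two days later, rice-grain Rhizoctonia solani inoculum went to plant bases; disease control scored versus untreated after 7 days at 25 °C, high humidity, averaging five plants.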

Botrytis cinerea [2] = experiment: Vine grey mold (grape berries); assay type: in vivo; conditions: average of six berries, 7-10 days; for pest or weed control at 50 ppm: grape berries treated with 50 ppm, read-out: % DISEASE CONTROL 50 ppm; for pest or weed control at 200 ppm: grape berries treated with 200 ppm, read-out: % DISEASE CONTROL 200 ppm
Procedure, shortened: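 Preventive berry test: compound at 50 or 200 ppm (acetone/water, 0.05% Tween 20) applied one day before inoculation with 10^6 spores/mL Botrytis conidia. After 7-10 days at 20 °C under 12 h light, infected surface area rated; disease control expressed as percent reduction from control mean; repeated-test values averaged.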

T1 sequence (A0A384J5E4 1-300): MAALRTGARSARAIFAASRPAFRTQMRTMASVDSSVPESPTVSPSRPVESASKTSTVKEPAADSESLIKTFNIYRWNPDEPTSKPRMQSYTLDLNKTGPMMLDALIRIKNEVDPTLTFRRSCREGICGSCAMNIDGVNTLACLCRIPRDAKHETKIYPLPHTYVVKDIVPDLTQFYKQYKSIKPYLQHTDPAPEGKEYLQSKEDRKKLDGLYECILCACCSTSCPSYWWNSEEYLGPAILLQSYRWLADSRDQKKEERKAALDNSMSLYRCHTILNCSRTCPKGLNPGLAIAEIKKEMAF
T1 sequence (A0A384J8V8 1-189): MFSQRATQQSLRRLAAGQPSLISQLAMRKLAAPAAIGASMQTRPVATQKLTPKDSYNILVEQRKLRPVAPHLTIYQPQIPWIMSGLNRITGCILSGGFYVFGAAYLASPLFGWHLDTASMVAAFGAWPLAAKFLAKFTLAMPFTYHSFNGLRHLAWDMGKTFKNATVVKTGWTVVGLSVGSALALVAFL
T1 sequence (A0A384JHJ5 1-192): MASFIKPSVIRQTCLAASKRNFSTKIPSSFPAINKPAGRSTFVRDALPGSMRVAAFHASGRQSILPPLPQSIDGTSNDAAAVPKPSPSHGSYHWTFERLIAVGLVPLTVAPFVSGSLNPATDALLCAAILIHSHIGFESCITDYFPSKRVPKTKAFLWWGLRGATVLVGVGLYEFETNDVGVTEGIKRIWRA
T1 sequence (A0A384K456 1-647 partner): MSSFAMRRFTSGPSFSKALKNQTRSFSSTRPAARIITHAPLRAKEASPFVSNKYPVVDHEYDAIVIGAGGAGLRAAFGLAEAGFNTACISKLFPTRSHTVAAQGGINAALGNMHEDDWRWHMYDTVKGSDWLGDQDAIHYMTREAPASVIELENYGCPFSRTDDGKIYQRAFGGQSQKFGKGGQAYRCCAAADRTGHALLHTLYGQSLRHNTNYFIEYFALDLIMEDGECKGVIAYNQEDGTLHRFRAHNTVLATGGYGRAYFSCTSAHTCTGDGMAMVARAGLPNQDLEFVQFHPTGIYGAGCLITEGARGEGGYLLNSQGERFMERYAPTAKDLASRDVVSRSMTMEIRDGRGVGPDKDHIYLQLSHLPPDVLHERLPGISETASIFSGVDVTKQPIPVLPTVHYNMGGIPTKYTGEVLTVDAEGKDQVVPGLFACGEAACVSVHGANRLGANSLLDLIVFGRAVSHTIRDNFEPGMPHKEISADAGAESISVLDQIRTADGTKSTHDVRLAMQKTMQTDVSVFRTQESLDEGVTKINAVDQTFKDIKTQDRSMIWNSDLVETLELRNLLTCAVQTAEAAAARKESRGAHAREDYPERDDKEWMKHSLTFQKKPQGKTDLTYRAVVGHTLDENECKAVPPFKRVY

Cn1cc(C(=O)Nc2ccccc2C2=CCC(C(C)(C)C)CC2)c(C(F)F)n1 (stereo not drawn) [Example 132, 1H-pyrazole-4-carboxamide, 3-(difluoromethyl)-N-[2-[4-(1,1-dimethylethyl)-1-cyclohexen-1-yl]phenyl]-1-methyl-]
IC50 (succinate dehydrogenase): 0.0035 µM
Disease Control Rating at 500 ppm (Botrytis cinerea [1]): 0
Disease Control Rating at 0.02 mg/mL (Rhizoctonia solani): 1
Disease Control Rating at 0.1 mg/mL (Rhizoctonia solani): 2
Disease Control Rating at 0.5 mg/mL (Rhizoctonia solani): 3
pest or weed control at 50 ppm (Botrytis cinerea [2]): 50%
pest or weed control at 200 ppm (Botrytis cinerea [2]): 51%

Cn1cc(C(=O)Nc2ccccc2C2=CCC(C(C)(C)C)CC2)c(C(F)(F)F)n1 (stereo not drawn) [Example 133, 1H-pyrazole-4-carboxamide, N-[2-[4-(1, -dimethylethyl)-1-cyclohexen-1-yl]phenyl]-1-methyl-3-(trifluoromethyl)-]
IC50 (succinate dehydrogenase): 0.0046 µM
Disease Control Rating at 20 ppm (Botrytis cinerea [1]): 0
Disease Control Rating at 100 ppm (Botrytis cinerea [1]): 0
Disease Control Rating at 500 ppm (Botrytis cinerea [1]): 1
Disease Control Rating at 0.02 mg/mL (Rhizoctonia solani): 1
Disease Control Rating at 0.1 mg/mL (Rhizoctonia solani): 2
Disease Control Rating at 0.5 mg/mL (Rhizoctonia solani): 3
pest or weed control at 50 ppm (Botrytis cinerea [2]): 39%
pest or weed control at 200 ppm (Botrytis cinerea [2]): 36%

Cn1cc(C(=O)Nc2ccccc2C2CCC(C(C)(C)C)CC2)c(C(F)F)n1 (stereo not drawn) [Example 134]
IC50 (succinate dehydrogenase): 0.0047 µM
Disease Control Rating at 20 ppm (Botrytis cinerea [1]): 1
Disease Control Rating at 100 ppm (Botrytis cinerea [1]): 1
Disease Control Rating at 500 ppm (Botrytis cinerea [1]): 2
Disease Control Rating at 0.02 mg/mL (Rhizoctonia solani): 3
Disease Control Rating at 0.1 mg/mL (Rhizoctonia solani): 3
Disease Control Rating at 0.5 mg/mL (Rhizoctonia solani): 3
pest or weed control at 50 ppm (Botrytis cinerea [2]): 66%
pest or weed control at 200 ppm (Botrytis cinerea [2]): 61%

Cn1cc(C(=O)Nc2ccccc2C2CCC(C(C)(C)C)CC2)c(C(F)(F)F)n1 (stereo not drawn) [Example 135, 1H-pyrazole-4-carboxamide, N-[2-[4-(1,1-dimethylethyl)cyclohexyl]-phenyl]-1-methyl-3-(trifluoromethyl)-]
IC50 (succinate dehydrogenase): 0.01 µM
Disease Control Rating at 20 ppm (Botrytis cinerea [1]): 1
Disease Control Rating at 100 ppm (Botrytis cinerea [1]): 1
Disease Control Rating at 500 ppm (Botrytis cinerea [1]): 2
Disease Control Rating at 0.5 mg/mL (Rhizoctonia solani): 3
pest or weed control at 50 ppm (Botrytis cinerea [2]): 52%
pest or weed control at 200 ppm (Botrytis cinerea [2]): 66%

CC1=C(c2ccccc2NC(=O)c2cn(C)nc2C(F)(F)F)CCC1 [Example 137, 1H-pyrazole-4-carboxamide, 1-methyl-N-[2-(2-methyl-1-cyclopenten-1-yl)phenyl]-3-(trifluoromethyl)-]
IC50 (succinate dehydrogenase): 0.02 µM
Disease Control Rating at 20 ppm (Botrytis cinerea [1]): 1
Disease Control Rating at 100 ppm (Botrytis cinerea [1]): 3
Disease Control Rating at 500 ppm (Botrytis cinerea [1]): 3
Disease Control Rating at 0.02 mg/mL (Rhizoctonia solani): 1
Disease Control Rating at 0.1 mg/mL (Rhizoctonia solani): 2
Disease Control Rating at 0.5 mg/mL (Rhizoctonia solani): 3
pest or weed control at 50 ppm (Botrytis cinerea [2]): 83%
pest or weed control at 200 ppm (Botrytis cinerea [2]): 100%

CCC1CCCC(C)=C1c1ccccc1NC(=O)c1cn(C)nc1C(F)(F)F (stereo not drawn) [Example 138, 1H-pyrazole-4-carboxamide, N-[2-(6-ethyl-2-methyl-1-cyclohexen-1-yl)phenyl]-1-methyl-3-(trifluoromethyl)-]
IC50 (succinate dehydrogenase): 0.13 µM
Disease Control Rating at 20 ppm (Botrytis cinerea [1]): 0
Disease Control Rating at 100 ppm (Botrytis cinerea [1]): 0
Disease Control Rating at 500 ppm (Botrytis cinerea [1]): 0
Disease Control Rating at 0.5 mg/mL (Rhizoctonia solani): 2
pest or weed control at 50 ppm (Botrytis cinerea [2]): 0%
pest or weed control at 200 ppm (Botrytis cinerea [2]): 4%

Cn1cc(C(=O)Nc2ccccc2C2CC(C)(C)CC(C)(C)C2)c(C(F)(F)F)n1 [Example 139, 1H-pyrazole-4-carboxamide, 1-methyl-N-[2-(3,3,5,5-tetramethylcyclohexyl)phenyl]-3-(trifluoromethyl)-]
IC50 (succinate dehydrogenase): 0.032 µM
Disease Control Rating at 20 ppm (Botrytis cinerea [1]): 0
Disease Control Rating at 100 ppm (Botrytis cinerea [1]): 0
Disease Control Rating at 500 ppm (Botrytis cinerea [1]): 0
Disease Control Rating at 0.02 mg/mL (Rhizoctonia solani): 2
Disease Control Rating at 0.1 mg/mL (Rhizoctonia solani): 2
Disease Control Rating at 0.5 mg/mL (Rhizoctonia solani): 3
pest or weed control at 50 ppm (Botrytis cinerea [2]): 2%
pest or weed control at 200 ppm (Botrytis cinerea [2]): 1%

Cn1cc(C(=O)Nc2ccccc2C2CC(C)(C)CC(C)(C)C2)c(C(F)F)n1 [Example 140, 1H-pyrazole-4-carboxamide, 3-(difluoromethyl)-1-methyl-N-[2-(3,3,5,5-tetramethylcyclohexyl)-phenyl]-]
IC50 (succinate dehydrogenase): 0.039 µM
Disease Control Rating at 20 ppm (Botrytis cinerea [1]): 0
Disease Control Rating at 100 ppm (Botrytis cinerea [1]): 1
Disease Control Rating at 500 ppm (Botrytis cinerea [1]): 1
Disease Control Rating at 0.02 mg/mL (Rhizoctonia solani): 0
Disease Control Rating at 0.1 mg/mL (Rhizoctonia solani): 2
Disease Control Rating at 0.5 mg/mL (Rhizoctonia solani): 3
pest or weed control at 50 ppm (Botrytis cinerea [2]): 16%
pest or weed control at 200 ppm (Botrytis cinerea [2]): 12%

Cn1cc(C(=O)Nc2ccccc2C2=CCCCC2C(C)(C)C)c(C(F)(F)F)n1 (stereo not drawn) [Example 141, 1H-pyrazole-4-carboxamide, N-[2-[6-(1,1-dimethylethyl)-1-cyclohexen-1-yl]phenyl]-1-methyl-3-(trifluoromethyl)-]
IC50 (succinate dehydrogenase): 0.049 µM
Disease Control Rating at 20 ppm (Botrytis cinerea [1]): 0
Disease Control Rating at 100 ppm (Botrytis cinerea [1]): 0
Disease Control Rating at 500 ppm (Botrytis cinerea [1]): 1
Disease Control Rating at 0.5 mg/mL (Rhizoctonia solani): 3
pest or weed control at 50 ppm (Botrytis cinerea [2]): 12%
pest or weed control at 200 ppm (Botrytis cinerea [2]): 12%

Cn1cc(C(=O)Nc2ccccc2CC2CCCC2)c(C(F)(F)F)n1 [Example 142, 1H-pyrazole-4-carboxamide, N-[2-(cyclopentylmethyl)phenyl]-1-methyl-3-(trifluoromethyl)-]
IC50 (succinate dehydrogenase): 0.22 µM
Disease Control Rating at 20 ppm (Botrytis cinerea [1]): 0
Disease Control Rating at 100 ppm (Botrytis cinerea [1]): 1
Disease Control Rating at 500 ppm (Botrytis cinerea [1]): 1
Disease Control Rating at 0.5 mg/mL (Rhizoctonia solani): 3
pest or weed control at 50 ppm (Botrytis cinerea [2]): 0%
pest or weed control at 200 ppm (Botrytis cinerea [2]): 18%

Cn1cc(C(=O)Nc2ccccc2C=C2CCCCCC2)c(C(F)(F)F)n1 [Example 143, 1H-pyrazole-4-carboxamide, N-[2-(cycloheptylidenemethyl)phenyl]-1-methyl-3-(trifluoromethyl)-]
IC50 (succinate dehydrogenase): 0.025 µM
Disease Control Rating at 20 ppm (Botrytis cinerea [1]): 0
Disease Control Rating at 100 ppm (Botrytis cinerea [1]): 0
Disease Control Rating at 500 ppm (Botrytis cinerea [1]): 0
Disease Control Rating at 0.5 mg/mL (Rhizoctonia solani): 3
pest or weed control at 50 ppm (Botrytis cinerea [2]): 33%
pest or weed control at 200 ppm (Botrytis cinerea [2]): 36%

Cn1cc(C(=O)Nc2ccccc2C2=CCSCC2)c(C(F)F)n1 [Example 144, 1H-pyrazole-4-carboxamide, 3-(difluoromethyl)-N-[2-(5,6-dihydro-2H-thiopyran-4-yl)phenyl]-1-methyl-]
IC50 (succinate dehydrogenase): 0.037 µM
Disease Control Rating at 20 ppm (Botrytis cinerea [1]): 0
Disease Control Rating at 100 ppm (Botrytis cinerea [1]): 0
Disease Control Rating at 500 ppm (Botrytis cinerea [1]): 1
Disease Control Rating at 0.5 mg/mL (Rhizoctonia solani): 3
pest or weed control at 50 ppm (Botrytis cinerea [2]): 15%
pest or weed control at 200 ppm (Botrytis cinerea [2]): 37%

Cn1cc(C(=O)Nc2ccccc2CC2CCCCCC2)c(C(F)F)n1 [Example 145, 1H-pyrazole-4-carboxamide, 1-methyl-N-[2-(cycloheptylmethyl)-phenyl]-3-(difluoromethyl)-]
IC50 (succinate dehydrogenase): 0.025 µM
Disease Control Rating at 20 ppm (Botrytis cinerea [1]): 0
Disease Control Rating at 100 ppm (Botrytis cinerea [1]): 0
Disease Control Rating at 500 ppm (Botrytis cinerea [1]): 0
Disease Control Rating at 0.5 mg/mL (Rhizoctonia solani): 3
pest or weed control at 50 ppm (Botrytis cinerea [2]): 0%
pest or weed control at 200 ppm (Botrytis cinerea [2]): 0%

Cn1cc(C(=O)Nc2ccccc2CC2CCCCCC2)c(C(F)(F)F)n1 [Example 146, 1H-pyrazole-4-carboxamide, 1-methyl-N-[2-(cycloheptylmethyl)-phenyl]-3-(trifluoromethyl)-]
IC50 (succinate dehydrogenase): 0.053 µM
Disease Control Rating at 20 ppm (Botrytis cinerea [1]): 0
Disease Control Rating at 100 ppm (Botrytis cinerea [1]): 0
Disease Control Rating at 500 ppm (Botrytis cinerea [1]): 1
Disease Control Rating at 0.5 mg/mL (Rhizoctonia solani): 1
pest or weed control at 50 ppm (Botrytis cinerea [2]): 0%
pest or weed control at 200 ppm (Botrytis cinerea [2]): 0%

Cn1cc(C(=O)Nc2ccccc2C=C2CCCCCC2)c(C(F)F)n1 [Example 147, 1H-pyrazole-4-carboxamide, N-[2-(cycloheptylidenemethyl)phenyl]-1-methyl-3-(difluoromethyl)-]
IC50 (succinate dehydrogenase): 0.02 µM
Disease Control Rating at 20 ppm (Botrytis cinerea [1]): 0
Disease Control Rating at 100 ppm (Botrytis cinerea [1]): 0
Disease Control Rating at 500 ppm (Botrytis cinerea [1]): 0
Disease Control Rating at 0.5 mg/mL (Rhizoctonia solani): 2
pest or weed control at 50 ppm (Botrytis cinerea [2]): 0%
pest or weed control at 200 ppm (Botrytis cinerea [2]): 0%

CC1C=C(c2ccccc2NC(=O)c2cn(C)nc2C(F)(F)F)CC1 (stereo not drawn) [Example 148, 1H-pyrazole-4-carboxamide, N-[2-(3-methyl-1-cyclopenten-1-yl)phenyl]-1-methyl-3-(trifluoromethyl)-]
IC50 (succinate dehydrogenase): 0.027 µM
Disease Control Rating at 20 ppm (Botrytis cinerea [1]): 0
Disease Control Rating at 100 ppm (Botrytis cinerea [1]): 2
Disease Control Rating at 500 ppm (Botrytis cinerea [1]): 2
Disease Control Rating at 0.5 mg/mL (Rhizoctonia solani): 3
pest or weed control at 50 ppm (Botrytis cinerea [2]): 37%
pest or weed control at 200 ppm (Botrytis cinerea [2]): 99%

CC1CC=C(c2ccccc2NC(=O)c2cn(C)nc2C(F)F)C1 (stereo not drawn) [Example 149, 1H-pyrazole-4-carboxamide, N-[2-(4-methyl-1-cyclopenten-1-yl)phenyl]-1-methyl-3-(difluoromethyl)-]
IC50 (succinate dehydrogenase): 0.013 µM
Disease Control Rating at 20 ppm (Botrytis cinerea [1]): 0
Disease Control Rating at 100 ppm (Botrytis cinerea [1]): 0
Disease Control Rating at 500 ppm (Botrytis cinerea [1]): 1
Disease Control Rating at 0.5 mg/mL (Rhizoctonia solani): 3
pest or weed control at 50 ppm (Botrytis cinerea [2]): 95%
pest or weed control at 200 ppm (Botrytis cinerea [2]): 100%
